Measured values reported in BindingDB's records for doi:10.1016/S0960-894X(01)80235-3 (1994).

Target: O-acyltransferase (Oryctolagus cuniculus, UniProt G1SFD9)
Assay: ChEBML_28168
Protocol: In vitro Acyl coenzyme A:cholesterol acyltransferase inhibition by incubation with [14C]oleolyl-CoA and intestinal microsomes isolated from cholesterol-fed rabbits.

O-acyltransferase, sequence (G1SFD9 1-524): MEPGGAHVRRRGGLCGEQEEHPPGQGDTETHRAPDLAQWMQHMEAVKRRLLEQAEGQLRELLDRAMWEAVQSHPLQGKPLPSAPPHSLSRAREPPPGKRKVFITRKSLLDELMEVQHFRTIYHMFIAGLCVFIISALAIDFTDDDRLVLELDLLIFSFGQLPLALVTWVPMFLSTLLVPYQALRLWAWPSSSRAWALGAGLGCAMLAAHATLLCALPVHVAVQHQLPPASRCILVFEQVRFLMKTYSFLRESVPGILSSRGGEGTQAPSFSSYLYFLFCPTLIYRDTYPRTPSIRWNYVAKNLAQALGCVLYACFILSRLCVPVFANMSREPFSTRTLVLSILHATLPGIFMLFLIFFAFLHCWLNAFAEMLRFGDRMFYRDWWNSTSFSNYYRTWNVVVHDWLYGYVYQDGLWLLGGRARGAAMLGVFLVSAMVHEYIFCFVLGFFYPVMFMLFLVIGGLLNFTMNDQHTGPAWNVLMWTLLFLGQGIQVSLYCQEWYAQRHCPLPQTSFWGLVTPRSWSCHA

| IC50 | Structure (SMILES) |
| --- | --- |
| 5 µM | CCCCCCCC/C=C\CCCCCCCc1cc(=O)n(-c2ccc(F)cc2F)[nH]1 [2-(2,4-Difluoro-phenyl)-5-((Z)-heptadec-8-enyl)-2,4-dihydro-pyrazol-3-one] |
| 5 µM | CCCCCCCC/C=C\CCCCCCCc1cc(=O)n(-c2ccc(C)cc2C)[nH]1 [2-(2,4-Dimethyl-phenyl)-5-((Z)-heptadec-8-enyl)-2,4-dihydro-pyrazol-3-one] |
| 5 µM | CCCCCCCC/C=C\CCCCCCC[c+]1cc(O)n(-c2ccc([N+](=O)[O-])cc2[N+](=O)[O-])[n-]1 [2-(2,4-Dinitro-phenyl)-5-((Z)-heptadec-8-enyl)-2,4-dihydro-pyrazol-3-one] |
| 5 µM | CCCCCCCCCCc1cc(=O)n(-c2c(C)cccc2C)[nH]1 [5-Decyl-2-(2,6-dimethyl-phenyl)-2,4-dihydro-pyrazol-3-one] |
